Drawing on US11230526B1, “Cylcoalkenyl derivatives useful as agonists of the GPR120 and/or GPR40 receptors” (Janssen Pharmaceutica NV, priority 2018, dated 2022), this text covers EC50 for 30 molecules.

The target of one assay is T1, Human GPR120 short form (Homo sapiens, UniProt Q5NUL3).
T1 construct: expressed in transfected cells
T1 sequence (Q5NUL3 1-361): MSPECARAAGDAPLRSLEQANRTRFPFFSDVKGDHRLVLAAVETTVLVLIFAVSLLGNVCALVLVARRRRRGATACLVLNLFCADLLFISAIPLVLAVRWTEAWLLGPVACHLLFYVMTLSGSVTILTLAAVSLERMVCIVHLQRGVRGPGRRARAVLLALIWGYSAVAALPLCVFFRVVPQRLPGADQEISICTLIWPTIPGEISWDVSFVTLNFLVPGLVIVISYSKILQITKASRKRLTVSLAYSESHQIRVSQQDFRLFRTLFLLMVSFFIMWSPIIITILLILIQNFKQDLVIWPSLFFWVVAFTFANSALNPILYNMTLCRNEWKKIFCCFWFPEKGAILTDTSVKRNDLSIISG
The experiment in a line: Human GPR120 calcium flux assay, Procedure Calcium B (4200 cells/well). Type of assay: cell-based. The essentials: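 Agonist EC50 came from a four-parameter fit of RFU (Fmax−Fmin) read over 300 s on FLIPR. Cells were HEK293 stably transfected with human GPR120 (NM_001195755.1) at 4200 per well, serum-starved 1 h and loaded with Fluo-4 NW dye with probenecid before ligand addition.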
Background: Calcium assays in cells follow changes in intracellular calcium, usually with a dye or a luminescent sensor.

In another assay the target is T2, human GPR40 (Homo sapiens, UniProt O14842).
T2 construct: expressed in transfected cells
T2 sequence (O14842 whole entry): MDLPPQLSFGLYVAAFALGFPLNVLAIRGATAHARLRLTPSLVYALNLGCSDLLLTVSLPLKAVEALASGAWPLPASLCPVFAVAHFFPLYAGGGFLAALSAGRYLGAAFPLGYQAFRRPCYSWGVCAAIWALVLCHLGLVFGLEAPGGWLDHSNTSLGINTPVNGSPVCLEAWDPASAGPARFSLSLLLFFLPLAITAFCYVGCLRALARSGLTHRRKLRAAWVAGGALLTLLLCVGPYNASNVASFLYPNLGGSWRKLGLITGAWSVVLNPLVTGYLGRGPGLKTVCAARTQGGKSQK
Briefly: GPR40 calcium flux assay, human GPR40. Type of assay: cell-based. Particulars: HEK293 cells stably expressing GPR40; table does not say human or rat. A digest of the protocol: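 Cells preincubated 1 h at 37° C. in HBSS, 20 mM HEPES, 0.1% BSA, then Fluo 8 calcium dye 30 min at 37° C. and 15 min at room temperature.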

Structures are written as SMILES.

Turning to `CCC1CCCC(COc2ccc(CCC(=O)O)c(C)c2C)=C1c1ccc(Cl)cc1` (stereo not drawn) [Compound 478, 3-[4-[[2-(4-chlorophenyl)-3-ethyl-cyclohexen-1-yl]methoxy]-2,3-dimethyl-phenyl]Propanoic Acid], the EC50 at Human GPR120 short form and at human GPR40 was greater than 5000 nM throughout.

In the case of `Cc1ccc(C2=C(COc3ccc(CCC(=O)O)c(C(F)(F)F)c3)CCC2)cc1F` [Compound 282, 3-[4-[[2-(3-fluoro-4-methyl-phenyl)cyclopenten-1-yl]methoxy]-2-(trifluoromethyl)phenyl]Propanoic Acid], the EC50 – broadly, the concentration that produces a half-maximal response – turned out to be 192 nM at Human GPR120 short form and 247 nM at human GPR40.

As to `Cc1cc(CCC(=O)O)cc(Cl)c1OCC1=C(c2ccc(F)cc2)CCC1` [Compound 236, 3-[3-chloro-4-[[2-(4-fluorophenyl)cyclopenten-1-yl]methoxy]-5-methyl-phenyl]Propanoic Acid], the EC50 at Human GPR120 short form was 1270 nM; on human GPR40, greater than 5000 nM.

`COC1CCC(c2ccccc2C)=C(COc2ccc(CCC(=O)O)c(C(F)(F)F)c2)C1` (stereo not drawn) [Compound 576, 3-[4-[[5-methoxy-2-(o-tolyl)cyclohexen-1-yl]methoxy]-2-(trifluoromethyl)phenyl]Propanoic Acid]: the results for the EC50 on Human GPR120 short form and on human GPR40 were greater than 5000 nM and 1570 nM, respectively.

As to `O=C(O)CCc1ccc(OCC2=C(Cc3ccccc3F)CCC2)cc1Cl` [Compound 438, 3-[2-chloro-4-[[2-[(2-fluorophenyl)methyl]cyclopenten-1-yl]methoxy]phenyl]Propanoic Acid], the EC50 is 3340 nM on Human GPR120 short form and 138 nM on human GPR40.

Consider `Cc1ccc(C2=C(COc3cc(C)c(CCC(=O)O)cc3F)CCC2)c(C)c1` [Compound 244, 3-[4-[[2-(2,4-dimethylphenyl)cyclopenten-1-yl]methoxy]-5-fluoro-2-methyl-phenyl]Propanoic Acid], for which the concentration giving a half-maximal response (EC50) on Human GPR120 short form amounted to 2240 nM; at human GPR40 it was 799 nM.

Take `CC(C)CC1=C(COc2ccc(CCC(=O)O)c(Cl)c2)CCCC1` [Compound 580, 3-[2-chloro-4-[(2-isobutylcyclohexen-1-yl)methoxy]phenyl]Propanoic Acid]: the EC50 on Human GPR120 short form came out at 1330 nM; on human GPR40 it was 202 nM.

On to `Cc1cc(OCC2=C(C3CCCC3)CCC2)c(F)cc1CCC(=O)O` [Compound 424, 3-[4-[(2-cyclopentylcyclopenten-1-yl)methoxy]-5-fluoro-2-methyl-phenyl]Propanoic Acid], for which the EC50 at Human GPR120 short form was 245 nM; at human GPR40, 248 nM.

As to `O=C(O)CCc1ccc(OCC2=C(c3ccc(C(F)(F)F)cc3)CCC2)cc1Cl` [Compound 272, 3-[2-chloro-4-[[2-[4-(trifluoromethyl)phenyl]cyclopenten-1-yl]methoxy]phenyl]Propanoic Acid], the EC50 on Human GPR120 short form was determined as 2240 nM; at human GPR40, 265 nM.

In the case of `CCc1cc(OCC2=C(C3CCCC3)CCC2)ccc1CCC(=O)O` [Compound 423, 3-[4-[(2-cyclopentylcyclopenten-1-yl)methoxy]-2-ethyl-phenyl]Propanoic Acid], the EC50 on Human GPR120 short form was determined as 272 nM; at human GPR40, 61 nM.

As to `COc1ccc(C2=C(COc3ccc(CCC(=O)O)c(Cl)c3)CCC2)cc1` [Compound 288, 3-[2-chloro-4-[[2-(4-methoxyphenyl)cyclopenten-1-yl]methoxy]phenyl]Propanoic Acid], the results for the EC50 on Human GPR120 short form and at human GPR40 were 847 nM and 1080 nM, respectively.

Turning to `O=C(O)CCc1ccc(OCC2=C(C3CCCC3)CCCCC2)cc1F` [Compound 613, 3-[4-[(2-cyclopentylcyclohepten-1-yl)methoxy]-2-fluoro-phenyl]Propanoic Acid], the EC50 at Human GPR120 short form came out at 436 nM; on human GPR40, 225 nM.

Turning to `O=C(O)CCc1ccc(OCC2=C(C(=O)c3ccccc3)CCC2)cc1C(F)(F)F` [Compound 403, 3-[4-[(2-benzoylcyclopenten-1-yl)methoxy]-2-(trifluoromethyl)phenyl]Propanoic Acid], the EC50 at Human GPR120 short form turned out to be 1490 nM; on human GPR40, 1140 nM.

In the case of `CC1CCC(c2ccc(Cl)cc2)=C1COc1ccc(CCC(=O)O)c(Cl)c1` (stereo not drawn) [Compound 337, 3-[2-chloro-4-[[2-(4-chlorophenyl)-5-methyl-cyclopenten-1-yl]methoxy]phenyl]Propanoic Acid], the EC50 at Human GPR120 short form was determined as 336 nM; at human GPR40, 519 nM.

Take `CCc1ccc(C2=C(COc3ccc(CCC(=O)O)c(C(F)(F)F)c3)CCC2)cc1` [Compound 294, 3-[4-[[2-(4-ethylphenyl)cyclopenten-1-yl]methoxy]-2-(trifluoromethyl)phenyl]Propanoic Acid]: the EC50 on Human GPR120 short form is greater than 5000 nM; at human GPR40, 3510 nM.

For the molecule `O=C(O)CCc1ccc(OCC2=C(c3ccc(Br)cc3)CC(F)(F)C2)cc1Cl` [Compound 393, 3-[4-[[2-(4-bromophenyl)-4,4-difluoro-cyclopenten-1-yl]methoxy]-2-chloro-phenyl]Propanoic Acid], the EC50 at Human GPR120 short form was 291 nM; at human GPR40, 420 nM.

As to `Cc1cc(CCC(=O)O)c(C(F)(F)F)cc1OCC1=C(c2ccc(Cl)cc2)CCC1` [Compound 98, 3-[4-[[2-(4-chlorophenyl)cyclopenten-1-yl]methoxy]-5-methyl-2-(trifluoromethyl)phenyl]Propanoic Acid], the EC50 at Human GPR120 short form was 2030 nM; on human GPR40 it was greater than 5000 nM.

`CC1(C)CCC(C2CCCC2)=C(COc2ccc(CCC(=O)O)c(C(F)(F)F)c2)C1` [Compound 604, 3-[4-[(2-cyclopentyl-5,5-dimethyl-cyclohexen-1-yl)methoxy]-2-(trifluoromethyl)phenyl]Propanoic Acid]: the EC50 amounted to 2010 nM on Human GPR120 short form and 1500 nM at human GPR40.

Turning to `O=C(O)CCc1ccc(OCC2=C(C3CCCC3)CCC2)cc1C1CC1` [Compound 444, 3-[4-[(2-cyclopentylcyclopenten-1-yl)methoxy]-2-cyclopropyl-phenyl]Propanoic Acid], the EC50 turned out to be 319 nM on Human GPR120 short form and 174 nM at human GPR40.

Regarding `O=C(O)CCc1ccc(OCC2=C(C3CCC3)CCC2)cc1` [Compound 397, 3-[4-[(2-cyclobutylcyclopenten-1-yl)methoxy]phenyl]Propanoic Acid], the EC50 came out at 592 nM on Human GPR120 short form and 418 nM at human GPR40.

As for `O=C(O)CCc1ccc(OCC2=C(C3CCCC3)CCC(F)(F)CC2)cc1C(F)(F)F` [Compound 617, 3-[4-[(2-cyclopentyl-5,5-difluoro-cyclohepten-1-yl)methoxy]-2-(trifluoromethyl)phenyl]Propanoic Acid], the EC50 at Human GPR120 short form worked out at 215 nM; at human GPR40 it was 103 nM.

For the molecule `Cc1cc(OCC2=C(Cc3cccc(F)c3)CCC2)c(F)cc1CCC(=O)O` [Compound 363, 3-[5-fluoro-4-[[2-[(3-fluorophenyl)methyl]cyclopenten-1-yl]methoxy]-2-methyl-phenyl]Propanoic Acid], the EC50 is greater than 5000 nM at Human GPR120 short form and 1700 nM at human GPR40.

Regarding `Cc1c(CCC(=O)O)ccc(OCC2=C(C3CCCC3)CCC(F)(F)CC2)c1C` [Compound 618, 3-[4-[(2-cyclopentyl-5,5-difluoro-cyclohepten-1-yl)methoxy]-2,3-dimethyl-phenyl]Propanoic Acid], the EC50 on Human GPR120 short form was 188 nM; at human GPR40, greater than 10000 nM.

Consider `O=C(O)CCc1ccc(OCC2=C(C3C=CCC3)CCC2)cc1` (stereo not drawn) [Compound 452, 3-[4-[(2-cyclopent-2-en-1-ylcyclopenten-1-yl)methoxy]phenyl]Propanoic Acid], for which the EC50 came out at 127 nM at Human GPR120 short form and 170 nM at human GPR40.

Regarding `O=C(O)CCc1c(F)cc(OCC2=C(C3CCCC3)CCC2)cc1C(F)(F)F` [Compound 439, 3-[4-[(2-cyclopentylcyclopenten-1-yl)methoxy]-2-fluoro-6-(trifluoromethyl)phenyl]Propanoic Acid], the EC50 on Human GPR120 short form is greater than 5000 nM; on human GPR40, greater than 10000 nM.

As for `Cc1ccc(C2=C(COc3ccc(CCC(=O)O)c(Cl)c3)CCC2)c(C)c1` [Compound 246, 3-[2-chloro-4-[[2-(2,4-dimethylphenyl)cyclopenten-1-yl]methoxy]phenyl]Propanoic Acid], the EC50 at Human GPR120 short form is 3130 nM; on human GPR40 it was 358 nM.

As for `Cc1cc(CCC(=O)O)ccc1OCC1=C(c2ccco2)CCC1` [Compound 208, 3-[4-[[2-(2-furyl)cyclopenten-1-yl]methoxy]-3-methyl-phenyl]Propanoic Acid], the concentration giving a half-maximal response (EC50) was 185 nM on Human GPR120 short form and greater than 5000 nM at human GPR40.

Regarding `Cc1c(CCC(=O)O)ccc(OCC2=C(C3CCCC3)CCC2)c1F` [Compound 431, 3-[4-[(2-cyclopentylcyclopenten-1-yl)methoxy]-3-fluoro-2-methyl-phenyl]Propanoic Acid], the EC50 at Human GPR120 short form was 59 nM; at human GPR40, greater than 10000 nM.

Turning to `Cc1ccc(F)c(C2=C(COc3cc(C)c(CCC(=O)O)cc3F)CCC2)c1` [Compound 340, 3-[5-fluoro-4-[[2-(2-fluoro-5-methyl-phenyl)cyclopenten-1-yl]methoxy]-2-methyl-phenyl]Propanoic Acid], the EC50 is 743 nM on Human GPR120 short form and 944 nM on human GPR40.

Turning to `Cc1cc(OCC2=C(c3ccc(Cl)cc3C)CCC2)c(F)cc1CCC(=O)O` [Compound 286, 3-[4-[[2-(4-chloro-2-methyl-phenyl)cyclopenten-1-yl]methoxy]-5-fluoro-2-methyl-phenyl]Propanoic Acid], the EC50 on Human GPR120 short form came to 2900 nM; on human GPR40 it was 245 nM.
